# Measurements as given in ChEMBL document CHEMBL1140303, “Pharmacophore, drug metabolism, and pharmacokinetics models on non-peptide AT1, AT2, and AT1/AT2 angiotensin II receptor antagonists” (J Med Chem, 2005).
# Legend:
# [1] = Percentage modification of drug adsorbed after administration to human; format: ADME
# [2] = target: T1, Type-1 angiotensin II receptor (Homo sapiens) (UniProt P30556); test: Binding affinity for AT1 receptor
# T1 sequence (whole entry): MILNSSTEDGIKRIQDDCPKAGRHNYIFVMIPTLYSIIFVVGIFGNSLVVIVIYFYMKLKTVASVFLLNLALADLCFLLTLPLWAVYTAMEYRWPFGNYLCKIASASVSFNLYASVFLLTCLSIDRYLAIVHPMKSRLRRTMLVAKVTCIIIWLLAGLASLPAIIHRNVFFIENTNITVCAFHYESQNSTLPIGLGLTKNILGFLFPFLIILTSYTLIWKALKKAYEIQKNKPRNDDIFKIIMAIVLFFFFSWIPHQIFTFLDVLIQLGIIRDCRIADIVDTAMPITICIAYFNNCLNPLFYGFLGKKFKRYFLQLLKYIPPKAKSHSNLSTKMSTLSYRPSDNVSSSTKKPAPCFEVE
# [3] = Oral bioavailability; format: ADME, organism-based; conditions: human, in vivo
# [4] = Time required for elimination of 50% of the compound; format: ADME; conditions: human
# [5] = target: T1, Type-1 angiotensin II receptor (Homo sapiens)
# Description: pKa value against human Angiotensin II receptor type 1
# [6] = target: T1, Type-1 angiotensin II receptor (Homo sapiens); test: Time to maximal effect against human Angiotensin II receptor type 1
# [7] = Volume distribution was determined; format: ADME, organism-based; conditions: human, in vivo
# [8] = target: T1, Type-1 angiotensin II receptor (Homo sapiens); test: Time to maximal plasma concentration of the drug in human
Modification of adsorbed drug [1],Affinity [2],bioavailability [3],half-life [4],pKa [5],Tmax [6],Vd [7],Tmax [8],VD [7],Compound
20%,0.1 nM,40%,11 h,3.9,4 h,–,–,–,CCOc1nc2cccc(C(=O)O)c2n1Cc1ccc(-c2ccccc2-c2nnn[nH]2)cc1
16%,1 nM,58%,24 h,4.5,–,4.54 L/kg,1 h,–,CCCc1nc2c(C)cc(-c3nc4ccccc4n3C)cc2n1Cc1ccc(-c2ccccc2C(=O)O)cc1
9%,1.7 nM,25%,6.1 h,–,–,0.22 L/kg,4 h,–,CCCCC(=O)N(Cc1ccc(-c2ccccc2-c2nnn[nH]2)cc1)[C@H](C(=O)O)C(C)C
–,6.4 nM,–,–,4.9,–,–,1 h,–,CCCCc1nc(Cl)c(CO)n1Cc1ccc(-c2ccccc2-c2nnn[nH]2)cc1
–,230 nM,–,–,–,–,–,–,–,CCCCc1nc(Cl)c(CO)n1Cc1ccc(-c2ccccc2C(=O)O)cc1
–,0.5 nM,–,–,–,–,–,–,–,CCc1nc2c(C)cc(C)nc2n1Cc1ccc(-c2ccccc2-c2nn[nH]n2)cc1
–,0.4 nM,–,–,–,–,–,1 h,–,Cc1nc(C)c2c(O)cc(=O)n(Cc3ccc(-c4ccccc4-c4nn[nH]n4)cc3)c2n1
–,1.3 nM,–,6.4 h,2.8,–,–,3 h,–,CCCCc1nc(Cl)c(C(=O)O)n1Cc1ccc(-c2ccccc2-c2nn[nH]n2)cc1 [CARBOXYLIC ACID METABOLITE]
–,–,–,40 h,–,–,–,–,–,Cc1nc(C)c2c(O)cc(=O)n(Cc3ccc(-c4ccccc4-c4nnn[nH]4)cc3)c2n1 [ENOLTASOSARTAN]
20%,9.2 nM,13%,7 h,5,–,0.16 L/kg,13 h,–,CCCCc1ncc(/C=C(\Cc2cccs2)C(=O)O)n1Cc1ccc(C(=O)O)cc1 [EPROSARTAN]
20%,1.3 nM,70%,21 h,4.7,–,0.9 L/kg,2.5 h,–,CCCCC1=NC2(CCCC2)C(=O)N1Cc1ccc(-c2ccccc2-c2nnn[nH]2)cc1 [IRBESARTAN]
75%,–,–,3.2 h,–,–,–,–,0.38 L/kg,CCCCc1nc(Cl)c(CO)n1Cc1ccc(-c2ccccc2-c2nn[nH]n2)cc1 [LOSARTAN]
2%,1.2 nM,60%,15 h,5,–,–,0.5 h,–,Cc1nc(C)c2c(n1)N(Cc1ccc(-c3ccccc3-c3nnn[nH]3)cc1)C(=O)CC2 [TASOSARTAN]
